Test results as given in patent US20160100572A1, “Enhancement Of Insecticides Against Codling Moth (Lepidoptera: Tortricidae) With L-Aspartate” (priority 2014, published 2016).
Like-named read-outs stand apart in the source and are kept apart here.

Columns and labels:
codling moth neonates [1] = settings: residues on artificial diet surface; cited from earlier work
codling moth neonates [2] = experiment: Feeding stimulation by L-aspartate on treated apple leaf sections; assay type: in vivo, Cydia pomonella
Experimental: (§1) Codling moth adults (C. pomonella) were obtained from the U.S. Department of Agriculture Research Service (USDAD ARS) at Yakima, Wash. The moths were kept at 25° C., 70-80% relative humidity, and a photoperiod of 16:8 (L:D) h. Polyethylene foil was provided as an oviposition surface. […] In all experiments, 0.5-1 hour posthatch neonates were used.
Feeding Stimulation by L-Aspartate. The feeding behavior of test larvae was assessed on apple leaf sections treated with L-aspartate solutions, and by a quantitative analysis of the amounts of leaf tissue ingested. Briefly, L-aspartate was dissolved in 0.02% Triton X-100 in distilled water, and the following concentrations were used for treatment of experimental sections: 0.01, 0.1, and 1 mg/ml. Control leaves were treated with the 0.02% aqueous Triton X-100 only. Circular sections of uniform size (12 mm in diameter) were removed from Honeycrisp (U.S. Pat. No. 7,197) foliage, avoiding the leaf rib area. Test solutions (10 μl) were distributed over the upper surface of the excised sections that subsequently were allowed to air-dry. […] Treated sections were placed in bioassay stations and each section was infested with one neonate larva. The surface area of each leaf disc that was consumed was determined using a stereomicroscope equipped with an ocular square mesh reference scale (No. 12-561-RG2; Fisher, Pittsburgh, Pa.). Thirty-three fragments of leaves, chosen randomly from […] of the leaves, were also measured visually and then dried and weighed to establish a relationship between optical measurement and weight of foliage consumed. Based on this determination, consumed areas of the leaf were converted to an estimated dry weight of leaf tissue.
Thirty to forty neonate larvae were tested individually to each concentration of L-aspartate. The amount of leaf tissue consumed by neonates was estimated 3 and 24 hours after infestation of each bioassay station, and was expressed as average (mean±SEM) leaf consumption.

codling moth neonates [3] = assay type: in vivo; settings: addition of 1 mg/ml L-aspartate; LC50 alone divided by LC50 with L-aspartate
Experimental: as §1

codling moth neonates [4] = experiment: Foliage consumption on foliage treated with LC30 of insecticide alone or with L-aspartate; assay type: in vivo, Cydia pomonella; settings: LC30 of insecticide alone or with 1 mg/ml L-aspartate, 24 hours
codling moth larvae = experiment: Insecticide enhancement with L-aspartate: field trials, fruit damage; assay type: in vivo, Cydia pomonella; settings: for fruit damage reduced by: L-aspartate added to insecticides
Experimental: Field trials were performed in 2010, 2011, and 2012 in a research orchard at the Missouri State Fruit Experiment Station in Mountain Grove, Mo. […] A 1-hectare apple research block was set up for the research. […] To combat these pests and diseases, the block was treated with a standard program of fungicides and insecticides alone or with addition of L-aspartate. An untreated 0.5-hectare refuge for the lepidopteran pests consisting of apple trees that were not treated with fungicides or insecticides was set up on the periphery of the block to provide moderate pressure from the pests, including codling moth.
The same experimental routine was followed each year. Apple trees of Stark Gala variety on M7A rootstock were used in fully randomized design for eight replicates and three treatments (a given insecticide alone, L-aspartate in combination with a given insecticide, and untreated control). Codling moth populations in experimental plots were monitored using delta traps baited with 0.16% codlemone (8E,10E-dodecadien-1-ol). Whenever a weekly count of codling moth males in the traps reached or exceeded five males per trap, an insecticide was applied within the next 1-2 days.
For each replicate, one tree received a spray with an insecticide tank-mixed with L-aspartate. Concentration of L-aspartate was 211 g/100 liters, which corresponded to 395 g/ha. Next, one tree in each replicate was sprayed with the respective insecticide only. Surf-Ac 820 (2.1 kg/ha, 50 g/100 liters) was used as a surfactant in either spray with L-aspartate-insecticide combination or with the respective insecticide only. In addition, one tree in each replicate was left untreated.
Sprays (at delivery rate=4673 liters/ha) were performed using a custom-made motorized handgun sprayer with nine separate tanks (Friend Manufacturing Corporation, Gasport, N.Y.) capable of sending the spray precisely into canopy of height up to 4 meters. To minimize spray drift, a tarpaulin screen was used.
Each year, 200 apples were sampled from each experimental trees treated with insecticide-L-asparate combination, each control tree (treated with insecticides only), and from each untreated tree. One hundred apples per tree were collected 2 weeks after the first flight of codling moth (May 2010, early June in 2011, and May 2012). Remaining apples (100 per tree) were collected at harvest (August in 2010 and 2011 and July in 2012). […] Briefly, 33-34 apples were collected from each of three zones within the canopy (close to the trunk, from the middle of the distance in between the trunk and the tips of the branches, and from the outside portion of the canopy to within 10-15 cm inside). Each time a vertical area from the bottom to the top of the canopy was randomly sampled in a circuitous design around the tree. The apples were immediately weighed and inspected for damage in the laboratory. Once damage was found, the fruit was carefully fragmented with a paring knife, and internal fruit feeders (in some fruits larvae of oriental fruit moth were found) were collected and examined under a stereomicroscope. Codling moth larvae were discriminated from oriental fruit moth larvae by absence of anal comb (Il'ichev et al. 2006). […] Apple weight was expressed as average±SEM weight. Damage was expressed as average±SEM percentage of sampled fruit that was infected by codling moth larvae.

[5] = test system: Drosophila N-methyl-D-aspartate (NMDA) receptors; settings: excitation of receptors; cited from earlier work
[6] = addition of 0.1% Coax; cited from earlier work
codling moth neonates [7] = settings: earlier studies, cited from earlier work
codling moth neonates [8] = settings: cited from earlier work
Spodoptera frugiperda = settings: Nu-Lure, Coax or Konsume, concentrations as high as 10%; cited from earlier work
[9] = test system: fourth-instar larvae of Heliothis virescens; settings: fed artificial diet; cited from earlier work
[10] = test system: fourth-instar larvae of Spodoptera littoralis; settings: fed artificial diet; cited from earlier work
[11] = test system: neonates of Choristoneura rosaceana; settings: 24 hours, concentrations as low as 0.6 ppm (AI); cited from earlier work

## C/C(=N\C#N)N(C)Cc1ccc(Cl)nc1 [acetamiprid]
Codling moth neonates [1]
  LC50 with 95% confidence: 1.35 to 2.06 mg (AI)/liter

## N[C@@H](CC(=O)O)C(=O)O [L-aspartate, L-Aspartic acid]
Codling moth neonates [2]; 3-hour assays
  concentration at which food consumption increased: 1 mg/mL
Codling moth neonates [2]; 24-hour assays
  lowest effective concentration increasing food consumption: 0.1 mg/mL
Codling moth neonates [2]; 3 hours, 1 mg/ml L-aspartate
  increased foliage consumption in comparison with control: approximately 60%
Codling moth neonates [2]; 24 hours, 0.1 mg/ml L-aspartate
  increased foliage consumption in comparison with control: approximately 30%
Codling moth neonates [2]; 24 hours, 1 mg/ml L-aspartate
  increased foliage consumption in comparison with control: approximately 40%
Codling moth neonates [3]
  efficacy increased by a factor (enhancement ratio): approximately 10
Codling moth neonates [4]
  foliage consumption: maintained its feeding stimulatory properties even in the presence of each insecticide
Codling moth larvae; 2010
  fruit damage by first-generation neonates after addition of L-aspartate to insecticide sprays: < 1%
Codling moth larvae; 2011
  fruit damage by first-generation neonates after addition of L-aspartate to insecticide sprays: 1.2%
Codling moth larvae; 2012
  fruit damage by first-generation neonates after addition of L-aspartate to insecticide sprays: 1%
Codling moth larvae; first generation
  fruit damage reduced by: 5%
Codling moth larvae; second generation
  fruit damage reduced by: 15%
[5]
  potency relative to glutamate: about five times less potent than glutamate

## CC1(C)C(C=C(Cl)Cl)C1C(=O)OC(C#N)c1cccc(Oc2ccccc2)c1 (stereo not shown) [cypermethrin]
[6]
  toxicity increased (times): 2.4 times

## N[C@@H](CCC(=O)O)C(=O)[O-].[Na+] [monosodium glutamate]
Codling moth neonates [7]; 3-hour assays
  concentration at which food consumption increased: 0.03 mg/mL
Codling moth neonates [7]; 24-hour assays
  effective concentration increasing food consumption: 0.05 mg/mL

## spinosad
Codling moth neonates [8]; addition of trans-ACBD
  efficacy enhancement: enhanced almost two times

## CC1(C)[C@H](C(=O)O[C@H](C#N)c2cccc(Oc3ccccc3)c2)[C@@H]1C=C(Br)Br [delthamethrin]
[6]
  toxicity increased (times): 11.3 times

## CCc1ccc(C(=O)NN(C(=O)c2cc(C)cc(C)c2)C(C)(C)C)cc1 [tebufenoside]
Spodoptera frugiperda
  mortality on adding phagostimulants: unable to significantly increase mortality

## O=C(NC(=O)c1c(F)cccc1F)Nc1ccc(Cl)cc1 [diβubenzuron]
Spodoptera frugiperda
  mortality on adding phagostimulants: unable to significantly increase mortality

## NC1(C(=O)O)CC(C(=O)O)C1 (stereo not drawn) [trans-ACBD]
Codling moth neonates [8]; in vivo
  reduction of insecticide active ingredient without sacrificing efficacy: > 50%

## CC1(C)C(C=C(Cl)Cl)C1C(=O)OC(C#N)c1ccc(F)c(Oc2ccccc2)c1 (stereo not drawn) [β-cyfluthrin]
[9]
  LC50: 3.1 μg/g of diet
[10]
  LC50: 0.1 μg/g of diet

## spinetoram
[11]
  mortality: 100%
